Molecules are shown by their SMILES. Read-outs that look alike come from different tables or passages of the source.

Assay [1] relates to 80S14 (p21-deficient) cells. The assay is described as follows: Cytotoxicity assay using isogenic cell lines: IC50 in 80S14 (p21-deficient) cells, SRB. The assay is classed as cell-based, human. Conditions: Homo sapiens. In short, it runs like this:
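80S14 (p21-deficient) cells seeded at 12,000 cells/well overnight, then exposed 5 days at 37 °C to serial dilutions (5 pM–50 μM or 170 pg/ml–10 μg/ml). TCA-fixed, sulforhodamine B-stained, absorbance at 560 nm; IC50 taken from cytotoxicity curves versus untreated controls.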

In assay [2] the test system is LoVo Colon cell line. The assay is described as follows: Cytotoxicity assay using LoVo colon cell line, SRB. The format is cell-based. Conditions: Homo sapiens, 96 h, read-out: Inhibition of LoVo. On the procedure: Cytotoxicity Assay Using LoVo Colon Cell Line: • 1. LoVo Colon cell lines were cultured in RPMI 1640 medium (Gibco/Invitrogen Life Sciences) supplemented with 10% fetal bovine serum (FBS, Gibco) and 50 μg/ml entamicin (Gibco). Cells were maintained at 37° C. under 7% CO2. • 2. Cells were seeded in 96-well microtiter plates (Corning/Costar) in a volume of 0.15 ml of growth medium (4000 cells/well). Plates were incubated at 37° C. overnight (18-24 hours). • 3. Serial dilutions of the test agent were added to each well. Dilutions were prepared in growth medium. One of two dose ranges was used: 5 pM to 20 μM or 170 pg/ml to 10 μg/ml. Cells were incubated with the test compounds for 4 days at 37° C. • 4. Surviving cells were processed using the SRB asay, as described above.
5. The drug concentration that inhibits cell proliferation by 50% relative to untreated controls (IC50) was determined from cytotoxicity curves using the LSW Toolbox graphing application.

Setting [3] is: 120 h, 80S14 (p21-deficient) cells, 5 days, SRB, class symbols, read-out: IC50 for 80S14.
Where [4] appears, read: Cellular activity in LoVo cell, 4 days incubation, SRB.
The mark [5] stands for this setting: 80S14, 120 h, read-out: IC50 for 80SI4 (uM).
Setting [6] is: 120 h, 80S14 p21-deficient cells, 5 days incubation, SRB, read-out: IC50 for 80SI4.
The mark [7] stands for this setting: LoVo colon cells, 4 days incubation, SRB.

Turning to `O=C(Nc1cc(-c2ccnc3c(C(=O)c4cccs4)cnn23)ccc1Cl)c1ccccc1` [Example 312, N-{2-Chloro-5-[3-(2-thienylcarbonyl)pyrazolo[1,5-a]pyrimidin-7-yl]phenyl}benzamide], the IC50 in assay [1] (setting [3]) is under 1 µM; in assay [2] (setting [4]), under 100 nM.
With `Cc1cc(C)cc(-c2cnn3c(-c4cccc(-c5nnn(CC6CCC6)n5)c4)ccnc23)c1` [Example 492, 7-{3-[2-(Cyclobutylmethyl)-2H-tetraazol-5-yl]phenyl}-3-(3,5-dimethylphenyl)pyrazolo[1,5-a]pyrimidine], the IC50 is 1 to 10 µM in assay [1] (setting [3]) and 100 to 1000 nM in assay [2] (setting [4]).
For the compound `CC(C)(C)CC(=O)Nc1cccc(-c2ccnc3c(C(=O)c4cccs4)cnn23)c1` [Example 55, 3,3-dimethyl-N-{3-[3-(thien-2-ylcarbonyl)pyrazolo[1,5-a]pyrimidin-7-yl]phenyl}butanamide], the IC50 in assay [1] (setting [5]) was under 1 µM; in assay [2] (LoVo), under 100 nM.
As to `CCC(C)C(C)CNc1cccc(-c2ccnc3c(C(=O)c4cccs4)cnn23)c1` (centres unmarked) [Example 430, (7-{3-[(2,3-Dimethylpentyl)amino]phenyl}pyrazolo[1,5-a]pyrimidin-3-yl)(thien-2-yl)methanone], the IC50 in assay [1] (setting [3]) lay in the range of 1 to 10 µM; in assay [2] (setting [4]), 100 to 1000 nM.
On to `O=C(Nc1cccc(-c2ccnc3c(C(=O)c4cccs4)cnn23)c1)OCc1cccnc1` [Example 424, Pyridin-3-ylmethyl 3-[3-(thien-2-ylcarbonyl)pyrazolo[1,5-a]pyrimidin-7-yl]phenylcarbamate], for which the IC50 in assay [1] (setting [3]) is under 1 µM; in assay [2] (setting [4]) it was 1000 to 20000 nM.
Regarding `O=C(c1nccs1)c1cnn2c(-c3cccc(NC(=O)C4CC4)c3)ccnc12` [Example 338, N-{3-[3-(1,3-Thiazol-2-ylcarbonyl)pyrazolo[1,5-a]pyrimidin-7-yl]phenyl}cyclopropanecarboxamide], the IC50 in assay [1] (setting [3]) lay within 1 to 10 µM; in assay [2] (setting [4]) it was 100 to 1000 nM.
Take `CC(C)OC(=O)Nc1cc(-c2ccnc3c(C(=O)c4cccs4)cnn23)ccc1N(C)C` [Example 348, Isopropyl 2-(dimethylamino)-5-[3-(thien-2-ylcarbonyl)pyrazolo[1,5-a]pyrimidin-7-yl]phenylcarbamate]: the IC50 in assay [1] (setting [3]) was 1 to 10 µM; in assay [2] (setting [4]), 100 to 1000 nM.
For `Cc1cc(C)cc(-c2cnn3c(-c4cccc(-c5nnn(Cc6cccnc6)n5)c4)ccnc23)c1` [Example 494, 3-(3,5-Dimethylphenyl)-7-{3-[2-(pyridin-3-ylmethyl)-2H-tetrazol-5-yl]phenyl}pyrazolo[1,5-a]pyrimidine] the same measures were 1 to 10 µM and 100 to 1000 nM.
The like results for `CCn1nnc(-c2cccc(-c3ccnc4c(-c5cc(C)cc(C)c5)cnn34)c2)n1` [Example 496, 3-(3,5-Dimethylphenyl)-7-[3-(2-ethyl-2H-tetrazol-5-yl)phenyl]pyrazolo[1,5-a]pyrimidine] were, in that order, 1 to 10 µM and 100 to 1000 nM.
The like results for `COc1ccccc1CNc1cccc(-c2ccnc3c(C(=O)c4cccs4)cnn23)c1` [Example 363, (7-{3-[(2-Methoxybenzyl)amino]phenyl}pyrazolo[1,5-a]pyrimidin-3-yl)(thien-2-yl)methanone] were, in that order, 10 to 50 µM and 100 to 1000 nM.
On to `Cn1cccc1C(=O)Nc1cccc(-c2ccnc3c(C(=O)c4cccs4)cnn23)c1` [Example 387, 1-Methyl-N-{3-[3-(thien-2-ylcarbonyl)pyrazolo[1,5-a]pyrimidin-7-yl]phenyl}-1H-pyrrole-2-carboxamide], for which the IC50 in assay [1] (setting [3]) was under 1 µM; in assay [2] (setting [4]) it was under 100 nM.
Take `O=C(c1cccs1)c1cnn2c(-c3ccc(F)c(-c4ccc(CO)cc4)c3)ccnc12` [Example 455, {7-[6-Fluoro-4′-(hydroxymethyl)-1,1′-biphenyl-3-yl]pyrazolo[1,5-a]pyrimidin-3-yl}(thien-2-yl)methanone]: the figures for the IC50 in assay [1] (setting [3]) and in assay [2] (setting [4]) were 1 to 10 µM and 100 to 1000 nM, respectively.
The like results for `O=C(c1cccs1)c1cnn2c(-c3cccc(-c4nnnn4CC4CCC4)c3)ccnc12` [Example 508, (7-{3-[1-(Cyclobutylmethyl)-1H-tetraazol-5-yl]phenyl}pyrazolo[1,5-a]pyrimidin-3-yl)(thien-2-yl)methanone] were, in that order, 10 to 50 µM and 1000 to 20000 nM.
As to `O=C(c1cccs1)c1cnn2c(-c3cccc(NCC4CCCCC4)c3)ccnc12` [Example 379, (7-{3-[(Cyclohexylmethyl)amino]phenyl)pyrazolo[1,5-a]pyrimidin-3-yl)(thien-2-yl)methanone], the IC50 in assay [1] (setting [3]) is under 1 µM; in assay [2] (setting [4]), under 100 nM.
For `CN(C)c1ccc(-c2ccnc3c(C(=O)c4cccs4)cnn23)cc1NC(=O)c1ccccc1Cl` [Example 421, 2-Chloro-N-{2-(dimethylamino)-5-[3-(thien-2-ylcarbonyl)pyrazolo[1,5-a]pyrimidin-7-yl]phenyl}benzamide] the same measures were under 1 µM and 100 to 1000 nM.
As for `O=C(Nc1cccc(-c2ccnc3c(C(=O)c4cccs4)cnn23)c1)c1ccco1` [Example 285, N-{3-[3-(2-Thienylcarbonyl)pyrazolo[1,5-a]pyrimidin-7-yl]phenyl}-2-furamide], the IC50 is under 1 µM in assay [1] (setting [3]) and under 100 nM in assay [2] (setting [4]).
For `CN(C)c1cccc(-c2cccc(-c3ccnc4c(C(=O)c5cccs5)cnn34)c2)c1` [Example 453, {7-[3′-(Dimethylamino)-1,1′-biphenyl-3-yl]pyrazolo[1,5-a]pyrimidin-3-yl}(thien-2-yl)methanone] the same measures were 1 to 10 µM and 100 to 1000 nM.
Take `CC(C)Cn1nnc(-c2cccc(-c3ccnc4c(C(=O)c5cccs5)cnn34)c2)n1` [Example 504, {7-[3-(2-Isobutyl-2H-tetraazol-5-yl)phenyl]pyrazolo[1,5-a]pyrimidin-3-yl}(thien-2-yl)methanone]: the IC50 was under 1 µM in assay [1] (setting [3]) and 100 to 1000 nM in assay [2] (setting [4]).
As to `CC(C)OC(=O)Nc1ccc(Cl)c(-c2ccnc3c(C(=O)c4cccs4)cnn23)c1` [Example 335, Isopropyl 4-chloro-3-[3-(thien-2-ylcarbonyl)pyrazolo[1,5-a]pyrimidin-7-yl]phenylcarbamate], the IC50 in assay [1] (80S14, 120 h, read-out: IC50 for 80S14 (uM)) is under 1 µM; in assay [2] (LoVo), 100 to 1000 nM.
`CC(C)(C)CNC(=O)Nc1cccc(-c2ccnc3c(C(=O)c4cccs4)cnn23)c1` [Example 164, N-neopentyl-N′-{3-[3-(thien-2-ylcarbonyl)pyrazolo[1,5-a]pyrimidin-7-yl]phenyl}urea]: the IC50 is under 1 µM in assay [1] (setting [6]) and under 100 nM in assay [2] (setting [7]).
With `N#CN=C(Nc1cccc(-c2ccnc3c(C(=O)c4cccs4)cnn23)c1)Oc1ccccc1` [Example 386, Phenyl N′-cyano-N-{3-[3-(thien-2-ylcarbonyl)pyrazolo[1,5-a]pyrimidin-7-yl]phenyl}imidocarbamate], the IC50 in assay [1] (setting [3]) fell in the range of 1 to 10 µM; in assay [2] (setting [4]) it was 1000 to 20000 nM.
For the compound `CCOc1cccc(-c2cnn3c(-c4cccc(NC(=O)CC(C)C)c4)ccnc23)c1` [Example 479, N-{3-[3-(3-Ethoxyphenyl)pyrazolo[1,5-a]pyrimidin-7-yl]phenyl}-3-methylbutanamide], the IC50 in assay [1] (setting [3]) was 10 to 50 µM; in assay [2] (setting [4]), 1000 to 20000 nM.
For `CC(C)CC(=O)Nc1ccc(-c2ccnc3c(C(=O)c4cccs4)cnn23)s1` [Example 343, 3-Methyl-N-{5-[3-(thien-2-ylcarbonyl)pyrazolo[1,5-a]pyrimidin-7-yl]thien-2-yl}butanamide] the same measures were 1 to 10 µM and 1000 to 20000 nM.
For `C=C(C)CNc1cccc(-c2ccnc3c(C(=O)c4cccs4)cnn23)c1` [Example 434, (7-{3-[(2-Methylprop-2-enyl)amino]phenyl}pyrazolo[1,5-a]pyrimidin-3-yl)(thien-2-yl)methanone], the IC50 in assay [1] (setting [3]) fell in the range of 1 to 10 µM; in assay [2] (setting [4]), 100 to 1000 nM.
The like results for `O=C(c1cccs1)c1cnn2c(-c3cccc(NCC=C(c4ccccc4)c4ccccc4)c3)ccnc12` [Example 399, (7-{3-[(3,3-Diphenylprop-2-enyl)amino]phenyl}pyrazolo[1,5-a]pyrimidin-3-yl)(thien-2-yl)methanone] were, in that order, 10 to 50 µM and 1000 to 20000 nM.
For the compound `CCCCOC(=O)Nc1cccc(-c2ccnc3c(C(=O)c4cccs4)cnn23)c1` [Example 13, butyl 3-[3-(thien-2-ylcarbonyl)pyrazolo[1,5-a]pyrimidin-7-yl]phenylcarbamate], the IC50 in assay [1] (setting [5]) was under 1 µM; in assay [2] (LoVo) it was under 100 nM.
Take `CCC(C)NC(=O)Nc1cccc(-c2ccnc3c(C(=O)c4cccs4)cnn23)c1` (centres unmarked) [Example 158, N-(sec-butyl)-N′-{3-[3-(thien-2-ylcarbonyl)pyrazolo[1,5-a]pyrimidin-7-yl]phenyl}urea]: the IC50 in assay [1] (setting [6]) is under 1 µM; in assay [2] (setting [7]) it was under 100 nM.
With `CC(C)CC(=O)Nc1cccc(-c2ccnc3c(-c4cccc(N(C)C)c4)cnn23)c1` [Example 465, N-(3-{3-[3-(Dimethylamino)phenyl]pyrazolo[1,5-a]pyrimidin-7-yl}phenyl)-3-methylbutanamide], the values for the IC50 in assay [1] (setting [3]) and in assay [2] (setting [4]) were under 1 µM and under 100 nM, respectively.
